Data taken from ChEMBL document CHEMBL1201862, “PubChem BioAssay data set” (2004).
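Interpolation was linear, between the two tested concentrations surrounding the appropriate level; five concentrations were tested over 48 hours in 96-well plates. GI50: concentration for 50% inhibition of growth.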 Active and inactive are the calls of the source. No stated cut-off is given here; in the data, active = GI50 up to about 1.1 µM and inactive = higher.

Assays:
Assay in all cases: NCI tumour cell line growth inhibition, 48 h
MOLT-4 = system: MOLT-4
SW-620 = system: SW-620
SF-539 = system: SF-539
EKVX = system: EKVX
K562 = system: K562
HOP-62 = system: HOP-62
IGROV-1 = system: IGROV-1
HOP-92 = system: HOP-92
NCI-H23 = system: NCI-H23
SK-MEL-28 = system: SK-MEL-28
DLD-1 = system: DLD-1
HT-29 = system: HT-29
NCI-H460 = system: NCI-H460
OVCAR-3 = system: OVCAR-3
SK-MEL-5 = system: SK-MEL-5
U-251 = system: U-251
HL-60 = system: HL-60
OVCAR-5 = system: OVCAR-5
COLO 205 = system: COLO 205
RXF 631 = system: RXF 631
DMS-114 = system: DMS-114
SK-OV-3 = system: SK-OV-3
TK-10 = system: TK-10
UACC-62 = system: UACC-62
OVCAR-8 = system: OVCAR-8
A498 = system: A498
CAKI-1 = system: CAKI-1
HOP-18 = system: HOP-18
CCRF-CEM = system: CCRF-CEM
SF-295 = system: SF-295
M19-MEL = system: M19-MEL
HCT-116 = system: HCT-116
SNB-78 = system: SNB-78
DMS-273 = system: DMS-273
OVCAR-4 = system: OVCAR-4
RPMI-8226 = system: RPMI-8226
ACHN = system: ACHN
SK-MEL-2 = system: SK-MEL-2
786-0 = system: 786-0
HCT-15 = system: HCT-15
LXFL 529 = system: LXFL 529
KM-20L2 = system: KM-20L2
UO-31 = system: UO-31
SN12C = system: SN12C
SNB-19 = system: SNB-19
RXF 393 = system: RXF 393
UACC-257 = system: UACC-257
A549 = system: A549
SF-268 = system: SF-268
M14 = system: M14
XF498 = system: XF498

COc1cccc(C2N3CCCCC3[C@@H]3c4[nH]c5ccccc5c4CCN23)c1OC (stereo partly specified)
GI50 (MOLT-4): 17.5 µM (inactive) | GI50 (SW-620): 17.3 µM (inactive) | GI50 (SF-539): 15 µM (inactive) | GI50 (EKVX): 17.9 µM (inactive) | GI50 (K562): 14.7 µM (inactive) | GI50 (HOP-62): 15.9 µM (inactive) | GI50 (IGROV-1): 18.2 µM (inactive) | GI50 (HOP-92): 15.7 µM (inactive) | GI50 (NCI-H23): 16.9 µM (inactive) | GI50 (SK-MEL-28): 16.8 µM (inactive) | GI50 (DLD-1): 16.9 µM (inactive) | GI50 (HT-29): 12.9 µM (inactive) | GI50 (NCI-H460): 19.2 µM (inactive) | GI50 (OVCAR-3): 13.1 µM (inactive) | GI50 (SK-MEL-5): 15.8 µM (inactive) | GI50 (U-251): 17.2 µM (inactive) | GI50 (HL-60): 15.1 µM (inactive) | GI50 (OVCAR-5): 15.9 µM (inactive) | GI50 (COLO 205): 15.2 µM (inactive) | GI50 (RXF 631): 16.4 µM (inactive) | GI50 (DMS-114): 15.5 µM (inactive) | GI50 (SK-OV-3): 17.5 µM (inactive) | GI50 (TK-10): 19.3 µM (inactive) | GI50 (UACC-62): 11.6 µM (inactive) | GI50 (OVCAR-8): 16.5 µM (inactive) | GI50 (A498): 11.4 µM (inactive) | GI50 (CAKI-1): 16.2 µM (inactive) | GI50 (HOP-18): 17 µM (inactive) | GI50 (CCRF-CEM): 17.3 µM (inactive) | GI50 (SF-295): 17.6 µM (inactive) | GI50 (M19-MEL): 15.9 µM (inactive) | GI50 (HCT-116): 17.3 µM (inactive) | GI50 (SNB-78): 15.7 µM (inactive) | GI50 (DMS-273): 16 µM (inactive) | GI50 (OVCAR-4): 17.7 µM (inactive) | GI50 (RPMI-8226): 18.7 µM (inactive) | GI50 (ACHN): 15.2 µM (inactive) | GI50 (SK-MEL-2): 14.5 µM (inactive) | GI50 (786-0): 18.3 µM (inactive) | GI50 (HCT-15): 17.1 µM | GI50 (LXFL 529): 15.2 µM (inactive) | GI50 (KM-20L2): 14.3 µM (inactive) | GI50 (UO-31): 14.9 µM (inactive) | GI50 (SN12C): 16.9 µM (inactive) | GI50 (SNB-19): 11.9 µM (inactive) | GI50 (RXF 393): 13.4 µM (inactive) | GI50 (UACC-257): 15.9 µM (inactive) | GI50 (A549): 15.8 µM (inactive) | GI50 (SF-268): 11.5 µM (inactive) | GI50 (M14): 16.1 µM (inactive) | GI50 (XF498): 15.2 µM (inactive)
